Consider one molecule from ChEMBL document CHEMBL5338791, “Discovery of Novel 1,3-Diphenylpyrazine Derivatives as Potent S-Phase Kinase-Associated Protein 2 (Skp2) Inhibitors for the Treatment of Cancer” (J Med Chem, 2023).

The source made the active and inactive calls. The calls are words filed in the database; no cut-off is given here.

Data set [1] has as its system PC-3. The experiment in a line: Induction of apoptosis in human PC-3 cells assessed as viable cells at 5 uM incubated for 48 hrs by annexin V-FITC/PI staining based flow cytometry (reference value: 98.6 %). The data set is classed as functional. As to conditions: read-out: Activity. For orientation: A flow cytometer gives signals particle by particle.
The nature of data set [2]: Toxicity in NOD-SCID mouse model xenografted with human PC-3 cells assessed as change in heart histology at 10 to 50 mg/kg, IG administered once every 2 days for 21 days by H and E staining based analysis. The data set is classed as organism-based. As to conditions: in vivo, po, 504 h, dose 10-50 mg/kg, time 21 day. On the technique in general: Xenograft models place foreign cells or tissue in a host animal.

Data set [3] in a line: Half life in plasma of NOD-SCID mouse model xenografted with human PC-3 cells at 25 mg/kg, IG measured upto 48 hrs by LC-MS/MS analysis. The data set is classed as ADME, organism-based. As to conditions: po.
Data set [4] deals with MGC-803. The experiment in a line: Induction of cell cycle arrest in human MGC-803 cells assessed as accumulation of cells at G2 phase at 10 uM incubated for 36 hrs by flow cytometry (reference value: 20.64 %). It is filed as functional.
The test system of data set [5] is PC-3. The experiment in a line: Upregulation of p27 level in human PC-3 cells at 10 uM incubated upto 48 hrs by Western blot analysis. The data set is classed as functional, cell-based.
Data set [6] concerns PC-3. The data set is described as follows: Induction of cell cycle arrest in human PC-3 cells assessed as accumulation of cells at G2 phase at 10 uM incubated for 6 hrs by flow cytometry (reference value: 19.34 %). The data set is classed as functional.
Data set [7] has as its system PC-3. The experiment in a line: Induction of cell cycle arrest in human PC-3 cells assessed as accumulation of cells at G2 phase at 10 uM incubated for 48 hrs by flow cytometry (reference value: 22.59 %). It is filed as functional.
Data set [8] in a line: Toxicity in NOD-SCID mouse model xenografted with human MGC-803 cells assessed as drug tolerance at 10 to 50 mg/kg, IG administered once every 2 days for 21 days. It is filed as organism-based. As to conditions: in vivo, po, 504 h, dose 10-50 mg/kg, time 21 day.
For data set [9], the system named is PC-3. The data set is described as follows: Induction of apoptosis in human PC-3 cells assessed as viable cells at 2.5 uM incubated for 48 hrs by annexin V-FITC/PI staining based flow cytometry (reference value: 98.6 %). It is filed as functional. The conditions noted are these: read-out: Activity.
Data set [10] relates to PC-3. The experiment in a line: Induction of apoptosis in human PC-3 cells assessed as early apoptotic cells at 5 uM incubated for 48 hrs by annexin V-FITC/PI staining based flow cytometry (reference value: 0.85 %). It is filed as functional.
In data set [11] the test system is PC-3. The data set is described as follows: Induction of cell cycle arrest in human PC-3 cells assessed as accumulation of cells at G1 phase at 10 uM incubated for 36 hrs by flow cytometry (reference value: 56.81 %). It is filed as functional.
Data set [12] has as its system PC-3. The data set is described as follows: Antitumor activity against human PC-3 cells xenografted in NOD-SCID mouse model assessed as p21 accumulation at 10 to 50 mg/kg, IG administered once every 2 days for 21 days by Western blot analysis. The data set is classed as functional, organism-based. As to conditions: dose 10-50 mg/kg, time 21.0 day.
Data set [13] has as its system PC-3. The data set is described as follows: Induction of cell cycle arrest in human PC-3 cells assessed as accumulation of cells at G1 phase at 5 uM incubated for 48 hrs by flow cytometry (reference value: 57.39 %). It is filed as functional.
Data set [14] relates to MGC-803. The experiment in a line: Induction of cell cycle arrest in human MGC-803 cells assessed as accumulation of cells at G1 phase at 10 uM incubated for 6 hrs by flow cytometry (reference value: 57.09 %). It is filed as functional.
Data set [15] concerns MGC-803. The experiment in a line: Induction of apoptosis in human MGC-803 cells assessed as early apoptotic cells at 10 uM incubated for 48 hrs by annexin V-FITC/PI staining based flow cytometry (reference value: 0.21 %). The data set is classed as functional.
The subject of the next data set is NCI-N87. The data set is described as follows: Antitumor activity against human NCI-N87 cells with low Skp2 expression assessed as cell growth inhibition incubated for 72 hrs by MTT assay. As to conditions: NCI-N87, 72 h. It is filed as functional, cell-based. In general terms: Tetrazolium dyes change colour on reduction, which living cells bring about.
A short description of data set [16]: AUC (infinity) in tumor of NOD-SCID mouse model xenografted with human PC-3 cells at 25 mg/kg, IG measured upto 48 hrs by LC-MS/MS analysis. It is filed as ADME, organism-based, Neoplasm. The conditions noted are these: in vivo, po. Details: dose 25 mg/kg, time < 48 hrs, route ig.
Data set [17] deals with PC-3. The experiment in a line: Induction of apoptosis in human PC-3 cells assessed as cell shrinkage incubated for 48 hrs. The data set is classed as functional, cell-based. The conditions noted are these: dose <= 10.0 µM.
In data set [18] the test system is MGC-803. The experiment in a line: Upregulation of p21 level in human MGC-803 cells upto 10 uM by Western blot analysis. The data set is classed as functional, cell-based. As to conditions: time 48.0 hrs, TDE = time-dependent effect.
The nature of data set [19]: Toxicity in NOD-SCID mouse model xenografted with human MGC-803 cells assessed as change in heart histology at 10 to 50 mg/kg, IG administered once every 2 days for 21 days by H and E staining based analysis. It is filed as organism-based. The conditions noted are these: in vivo, po, 504 h, dose 10-50 mg/kg, time 21 day.
Data set [20] in a line: Biodistribution in tumor of NOD-SCID mouse model xenografted with human PC-3 cells at 25 mg/kg, IG measured for 48 hrs by LC-MS/MS analysis. It is filed as ADME, organism-based, Neoplasm. As to conditions: in vivo, po.
The test system of data set [21] is MGC-803. The experiment in a line: Induction of apoptosis in human MGC-803 cells assessed as viable cells at 2.5 uM incubated for 48 hrs by annexin V-FITC/PI staining based flow cytometry (reference value: 98 %). As to conditions: read-out: Activity. It is filed as functional.
Data set [22] has as its system MGC-803. The data set is described as follows: Induction of cell cycle arrest in human MGC-803 cells assessed as accumulation of cells at S phase at 10 uM incubated for 6 hrs by flow cytometry (reference value: 20.41 %). The data set is classed as functional.
The subject of data set [23] is MGC-803. The experiment in a line: Induction of apoptosis in human MGC-803 cells assessed as nuclear fragmentation incubated for 48 hrs. The conditions noted are these: dose <= 10.0 µM. It is filed as functional, cell-based.

Regarding `O=C(CCl)NC1CCN(c2cnc(-c3ccccc3)c(-c3ccccc3)n2)CC1`, the viability at 5 µM with PC-3 [1] worked out at 82.5%. Also, the Activity result in data set [2] is listed as “Non-Toxic”; in the data set with MGC-803 [4], 19.76%; in the data set with PC-3 [6], 19.87%; with PC-3 [7], 16.41%; in data set [8] it was “Non-Toxic”; with PC-3 [10], 0.33%. The Activity with PC-3 [11] is 33.46%; in the data set with PC-3 [13], 44.65%; in the data set on MGC-803 [14], 47.84%; in the data set with MGC-803 [15], 3.41%; in the data set on PC-3 [17], “Dose-Dependent Effect”; in the data set on MGC-803 [18], “Tde”. Moreover, the Activity result in [19] was “Non-Toxic”; with MGC-803 [22] it was 29.93%; with MGC-803 [23] it was “Dose-Dependent Effect”. Besides, the half-life in [3] was 14.1 h. Moreover, the result in the data set on PC-3 [5] and with PC-3 [12] was Active. The viability at 2.5 µM in the data set on PC-3 [9] is 92.2%; in the data set on MGC-803 [21], 89.6%. Further, the IC50 in the data set with NCI-N87 turned out to be 15.5 µM. In [16], this molecule came in with an AUC of 2636 ng·h/g. For the same molecule, in [20], the Drug uptake entry is “Active”.

A word on the half-life: it is how long it takes for the measured level to halve. As a reminder, the IC50 is the midpoint of a concentration-inhibition curve.
